According to patent US9540364B2, “Benzimidazole tetrahydrofuran derivatives” (Merck Sharp & Dohme Corp., priority 2012, dated 2017):

Experiments:
ob/ob and db/db mice = conditions: following 8 weeks of administration; cited from earlier work
[1] = target: recombinant human AMPK complex 7 (containing α2β1γ1) (Homo sapiens (Human), UniProt P54646+Q9Y478); test: In vitro AMPK activation assay (AMPKSAMSF); type: biochemical; conditions: for EC50: inflection point reflecting 50% of the maximum activation; for Emax: recombinant human AMPK complex 7 (α2β1γ1), 10-point titration, read-out: % Maximum AMP Activation of human AMPK Complex 7
Experimental: The recombinant human AMPK complex 1 (containing α1β1γ1) or AMPK complex 7 (containing α2β1γ1) was obtained from baculovirus expression system. Recombinant viruses were generated by cotransfection of AMPK/pBacPak9 clones with Baculogold baculovirus DNA (Pharmingen) in spodoptera frugiperda 21 cells according to the manufacturer's instructions. Each round of virus amplification was performed for 5 days in Grace's medium containing 10% serum. Virus that had been subjected to three rounds of amplification was used for all protein production procedures. To express the AMPK complex, sf21 cells were adapted to serum free medium (SF900 II, Invitrogen) by sequential dilution from serum containing stocks into SF900II medium and maintained in shaker flasks at 90 rpm at 27° C. The recombinant AMPK enzyme complex was produced by triple infection, one recombinant virus for each of the subunits, in sf21 cells under serum free conditions. Cells were infected in log phase, 1×10^6 cells/ml, at a multiplicity of infection of ˜5. Cells were harvested by centrifugation at 10,000×g for 15 minutes after 72 hours of infection with viruses. The insect cell pellet from 2 liters of culture was resuspended in 50 ml lysis buffer (20 mM Tris-HCl, 50 mM NaCl, 50 mM NaF, 30 mM Na PPi, 0.25 M sucrose, 10 mM ZnCl2, 2 mM DTT, 0.4 mg/ml digitonin) and subjected to two cycles of freeze-thaw lysis in a dry-ice ethanol bath. Insoluble material was removed by centrifugation at 10,000×g and the supernatant was fractionated with use of polyethylene glycol (PEG). The protein fraction precipitating between 2.5 and 6% PEG was used for further purification using a Blue-Sepharose step (Zhou et al, J. Clin. Invest. 108, 1167-1174, 2001).
The in vitro AMPK activation assay is performed in a volume of 30 μl in a 384-well plate. Enzyme reactions were assembled in the microtiter plate by adding 15 μl of 2× enzyme in assay buffer (20 mM HEPES, pH 7.3, 5 mM MgCl2, 3 mM DTT, 0.01% Brij 35 and CamK Kinase, to activate AMPK) to wells which contained either DMSO or compound. The reaction was initiated with the addition of 15 μl 2× substrate mixture containing 200 μM ATP, and 3.0 μM fluorescently labeled SAMS (5-FAM-HMRSAMSGLHLVKRR-COOH) in assay buffer. After 45-minute incubation at 25° C., the reaction was stopped by the addition of 70 μl stop buffer (100 mM HEPES, pH 7.3, 40 mM EDTA, 0.015% Brij 35). Phosphorylated 5-FAM SAMS product is assessed using a Caliper EZ Reader LabChip microfluidics reader. Product conversion is determined by calculating the peak heights of the substrate and product and reporting the product/(product+substrate) peak ratio. The 10-point titration data were expressed as % maximum AMP activation. The results were plotted using 4 parameter fit and the inflection point reflecting 50% of the maximum activation was reported as the EC50.

recombinant human AMPK complex 7 (containing α2β1γ1), sequence (P54646 whole entry): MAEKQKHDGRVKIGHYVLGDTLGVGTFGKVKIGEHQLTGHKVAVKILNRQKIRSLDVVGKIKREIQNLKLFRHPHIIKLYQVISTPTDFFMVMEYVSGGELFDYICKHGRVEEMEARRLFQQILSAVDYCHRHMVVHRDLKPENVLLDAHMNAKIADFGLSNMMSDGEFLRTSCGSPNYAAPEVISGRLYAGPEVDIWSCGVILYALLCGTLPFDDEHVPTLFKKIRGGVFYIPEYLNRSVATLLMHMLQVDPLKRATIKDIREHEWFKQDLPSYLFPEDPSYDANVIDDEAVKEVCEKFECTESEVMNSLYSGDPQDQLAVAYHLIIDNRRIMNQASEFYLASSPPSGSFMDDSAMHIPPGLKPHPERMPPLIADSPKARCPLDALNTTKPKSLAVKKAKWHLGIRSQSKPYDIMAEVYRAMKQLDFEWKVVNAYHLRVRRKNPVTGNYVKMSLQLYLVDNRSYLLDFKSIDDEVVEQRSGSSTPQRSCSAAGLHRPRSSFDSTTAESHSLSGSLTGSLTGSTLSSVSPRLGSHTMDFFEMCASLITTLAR
recombinant human AMPK complex 7 (containing α2β1γ1), sequence (Q9Y478 whole entry): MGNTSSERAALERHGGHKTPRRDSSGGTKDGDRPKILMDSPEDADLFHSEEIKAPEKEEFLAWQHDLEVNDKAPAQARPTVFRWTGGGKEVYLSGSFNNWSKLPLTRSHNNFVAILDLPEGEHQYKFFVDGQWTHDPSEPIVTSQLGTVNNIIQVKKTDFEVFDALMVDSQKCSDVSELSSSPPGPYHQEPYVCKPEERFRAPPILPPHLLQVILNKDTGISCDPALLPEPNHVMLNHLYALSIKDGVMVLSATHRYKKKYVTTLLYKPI
recombinant human AMPK complex 7 (containing α2β1γ1), sequence (P54619 whole entry partner): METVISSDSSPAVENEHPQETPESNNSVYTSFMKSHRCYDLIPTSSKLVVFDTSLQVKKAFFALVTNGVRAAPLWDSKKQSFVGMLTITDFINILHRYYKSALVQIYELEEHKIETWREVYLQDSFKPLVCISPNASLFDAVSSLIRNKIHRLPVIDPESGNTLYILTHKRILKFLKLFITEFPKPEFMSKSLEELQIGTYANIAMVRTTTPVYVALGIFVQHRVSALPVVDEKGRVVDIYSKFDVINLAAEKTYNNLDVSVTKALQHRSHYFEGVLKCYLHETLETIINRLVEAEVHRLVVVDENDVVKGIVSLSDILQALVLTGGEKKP

| SMILES | blood glucose reduction (ob/ob and db/db mice) [%] | EC50 [1] [nM] | Emax [1] [%] |
| --- | --- | --- | --- |
| NC(=O)c1ncn([C@@H]2O[C@H](CO)[C@@H](O)[C@H]2O)c1N [AICAR] | 35 | – | – |
| OC[C@H]1OC[C@@H](Oc2nc3cc(-c4ccc(-c5ccccc5)cc4)c(Cl)cc3[nH]2)[C@@H]1O [Example 1, (2R,3R,4R)-4-[[6-chloro-5-(4-phenylphenyl)-1H-benzimidazol-2-yl]oxy]-2-(hydroxymethyl)tetrahydrofuran-3-ol] | – | 216 | 301 |
| OC[C@H]1OC[C@@H](Oc2nc3cc(-c4ccc(-c5cccc(F)c5)cc4)c(Cl)cc3[nH]2)[C@@H]1O [Example 2] | – | 4290 | 137 |
| CNC(=O)c1ccc(-c2ccc(-c3cc4nc(O[C@@H]5CO[C@H](CO)[C@H]5O)[nH]c4cc3Cl)cc2)cc1 [Example 3] | – | 8 | 262 |
| Cc1cc(-c2ccc(-c3ccc(-c4cc5nc(O[C@@H]6CO[C@H](CO)[C@H]6O)[nH]c5cc4Cl)cc3)cc2)[nH]n1 [Example 4] | – | 104 | 172 |
| N#Cc1ccc(-c2ccc(-c3cc4nc(O[C@@H]5CO[C@H](CO)[C@H]5O)[nH]c4cc3Cl)cc2)c(F)c1 [Example 5] | – | 209 | 288 |
| OC[C@H]1OC[C@@H](Oc2nc3cc(-c4ccc(-c5ccc(-n6ccnn6)cc5)cc4)c(Cl)cc3[nH]2)[C@@H]1O [Example 7] | – | 8 | 233 |
| CC(CO)(CO)c1ccc(-c2ccc(-c3cc4nc(O[C@@H]5CO[C@H](CO)[C@H]5O)[nH]c4cc3Cl)cc2)cc1 [Example 8] | – | 5 | 278 |
| OC[C@H]1OC[C@@H](Oc2nc3cc(-c4ccc(-c5ccc(-n6cccn6)cc5)cc4)c(Cl)cc3[nH]2)[C@@H]1O [Example 9] | – | 33 | 269 |
| OC[C@H]1OC[C@@H](Oc2nc3cc(-c4ccc(-c5ccc(C6CNCCO6)cc5)cc4)c(Cl)cc3[nH]2)[C@@H]1O (stereo partly drawn) [Example 10] | – | 34 | 210 |
| OC[C@H]1OC[C@@H](Oc2nc3cc(-c4ccc(-c5ccc(-c6nccs6)cc5)cc4)c(Cl)cc3[nH]2)[C@@H]1O [Example 12] | – | 76 | 170 |
| OC[C@H]1OC[C@@H](Oc2nc3c(F)c(-c4ccc(-c5ccc(-n6ccnn6)cc5)cc4)c(F)cc3[nH]2)[C@@H]1O [Example 13] | – | 5 | 283 |
| CNC(=O)c1ccc(-c2ccc(-c3c(F)cc4[nH]c(O[C@@H]5CO[C@H](CO)[C@H]5O)nc4c3F)cc2)cc1 [Example 14] | – | 4 | 340 |
| OC[C@H]1OC[C@@H](Oc2nc3c(F)c(-c4ccc(-c5ccc(-c6nccc(O)n6)cc5)cc4)c(F)cc3[nH]2)[C@@H]1O [Example 15] | – | 3 | 299 |
| CC(CO)(CO)c1ccc(-c2ccc(-c3c(F)cc4[nH]c(O[C@@H]5CO[C@H](CO)[C@H]5O)nc4c3F)cc2)cc1 [Example 16] | – | 6 | 313 |
| OC[C@H]1OC[C@@H](Oc2nc3c(F)c(-c4ccc(-c5ccc(-n6cccn6)cc5)cc4)c(F)cc3[nH]2)[C@@H]1O [Example 17] | – | 20 | 313 |
| OC[C@H]1OC[C@@H](Oc2nc3c(F)c(-c4ccc(-c5ccc(C6CNCCO6)cc5)cc4)c(F)cc3[nH]2)[C@@H]1O (stereo partly drawn) [Example 18] | – | 34 | 316 |
| OC[C@H]1OC[C@@H](Oc2nc3c(F)c(-c4ccc(-c5ccc(-c6nccs6)cc5)cc4)c(F)cc3[nH]2)[C@@H]1O [Example 19] | – | 67 | 251 |
| Cc1cc(-c2ccc(-c3ccc(-c4c(F)cc5[nH]c(O[C@@H]6CO[C@H](CO)[C@H]6O)nc5c4F)cc3)cc2)[nH]n1 [Example 20] | – | 50 | 246 |
| N#Cc1ccc(-c2ccc(-c3c(F)cc4[nH]c(O[C@@H]5CO[C@H](CO)[C@H]5O)nc4c3F)cc2)c(F)c1 [Example 21] | – | 38 | 230 |
